{
  "source": "patent US11420947B2",
  "about": "“(S)-n-hydroxy-2-(2-(4-methoxyphenyl)butanamido)thiazole-5-carboxamide and pharmaceutically acceptable salts thereof” (TRANSLATIONAL DRUG DEVELOPMENT, LLC, priority 2018, dated 2022)",
  "type_in_all_cases": "biochemical",
  "key": {"HDAC10": {"molecular_target": "T1, HDAC10 (Homo sapiens, UniProt Q969S8)", "T1 construct": "made in house", "T1 sequence (Q969S8 1-669)": "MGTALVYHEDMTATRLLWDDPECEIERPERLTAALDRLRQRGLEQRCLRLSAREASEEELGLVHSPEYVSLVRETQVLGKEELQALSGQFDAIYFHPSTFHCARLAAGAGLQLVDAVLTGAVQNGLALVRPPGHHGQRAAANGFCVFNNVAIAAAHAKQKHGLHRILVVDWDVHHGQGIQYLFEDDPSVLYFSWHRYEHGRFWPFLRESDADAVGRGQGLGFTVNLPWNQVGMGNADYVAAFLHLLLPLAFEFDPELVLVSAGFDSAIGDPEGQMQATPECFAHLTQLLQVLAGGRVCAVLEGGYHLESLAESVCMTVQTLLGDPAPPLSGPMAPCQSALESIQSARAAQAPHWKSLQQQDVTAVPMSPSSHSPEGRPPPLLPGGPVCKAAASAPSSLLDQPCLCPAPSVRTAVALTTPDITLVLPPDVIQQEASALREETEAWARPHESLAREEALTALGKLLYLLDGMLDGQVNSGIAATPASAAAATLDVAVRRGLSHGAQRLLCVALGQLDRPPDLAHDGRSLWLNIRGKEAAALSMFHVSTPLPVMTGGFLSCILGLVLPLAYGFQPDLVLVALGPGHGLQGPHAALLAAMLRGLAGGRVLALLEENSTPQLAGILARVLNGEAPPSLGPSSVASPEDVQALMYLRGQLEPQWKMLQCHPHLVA", "assay": "Inhibition of HDAC enzymes, 12-point concentration-response", "conditions": "for IC50: HDAC10", "method": "(§1) Compounds were tested in a 12-point concentration-response format against 11 HDAC enzymes as outlined in Table 2A. Test compounds were diluted in 100% DMSO using 3-fold dilution steps. The final compound concentration in the assay ranged from 100 μM to 0.565 nM or as requested. Compounds were tested in a single well for each dilution, and the final concentration of DMSO in all assays was kept at 1%. Reference compounds were tested in an identical manner."}, "HDAC4": {"molecular_target": "T2, HDAC4 (Homo sapiens, UniProt P56524)", "T2 construct": "made in house", "T2 sequence (P56524 whole entry, species assumed)": "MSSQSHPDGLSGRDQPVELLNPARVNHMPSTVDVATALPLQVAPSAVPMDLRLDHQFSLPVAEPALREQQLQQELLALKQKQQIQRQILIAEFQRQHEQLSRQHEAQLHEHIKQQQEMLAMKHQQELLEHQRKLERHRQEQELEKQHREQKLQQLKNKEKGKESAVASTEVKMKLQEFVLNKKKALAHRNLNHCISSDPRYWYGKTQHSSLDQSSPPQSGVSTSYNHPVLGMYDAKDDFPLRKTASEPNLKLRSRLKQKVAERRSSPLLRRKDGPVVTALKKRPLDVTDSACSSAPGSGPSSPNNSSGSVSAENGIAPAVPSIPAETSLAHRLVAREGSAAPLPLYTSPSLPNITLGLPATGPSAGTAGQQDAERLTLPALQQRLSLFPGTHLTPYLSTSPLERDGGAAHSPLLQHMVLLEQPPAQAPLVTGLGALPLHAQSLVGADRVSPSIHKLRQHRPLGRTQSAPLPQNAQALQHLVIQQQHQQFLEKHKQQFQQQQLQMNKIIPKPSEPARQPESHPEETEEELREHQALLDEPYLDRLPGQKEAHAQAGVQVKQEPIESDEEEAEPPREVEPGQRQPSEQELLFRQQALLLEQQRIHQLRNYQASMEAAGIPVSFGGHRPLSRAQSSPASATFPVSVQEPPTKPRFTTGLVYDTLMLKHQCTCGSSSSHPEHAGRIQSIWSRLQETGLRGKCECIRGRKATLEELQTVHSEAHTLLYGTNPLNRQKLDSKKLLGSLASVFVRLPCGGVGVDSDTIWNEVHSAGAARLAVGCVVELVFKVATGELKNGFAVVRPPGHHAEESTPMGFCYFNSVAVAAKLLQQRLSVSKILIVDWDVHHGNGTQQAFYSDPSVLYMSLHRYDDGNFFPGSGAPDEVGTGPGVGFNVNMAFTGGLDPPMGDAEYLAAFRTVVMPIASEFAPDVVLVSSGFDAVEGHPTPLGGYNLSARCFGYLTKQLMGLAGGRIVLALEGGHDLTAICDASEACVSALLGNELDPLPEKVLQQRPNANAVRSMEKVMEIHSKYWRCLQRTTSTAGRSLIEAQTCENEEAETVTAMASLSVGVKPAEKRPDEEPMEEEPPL", "assay": "Inhibition of HDAC enzymes, 12-point concentration-response", "method": "as §1"}, "HDAC9": {"molecular_target": "T3, HDAC9 (Homo sapiens, UniProt Q9UKV0)", "T3 construct": "purchased BPS 50009", "T3 sequence (Q9UKV0 1-1066 isoform Q9UKV0-5)": "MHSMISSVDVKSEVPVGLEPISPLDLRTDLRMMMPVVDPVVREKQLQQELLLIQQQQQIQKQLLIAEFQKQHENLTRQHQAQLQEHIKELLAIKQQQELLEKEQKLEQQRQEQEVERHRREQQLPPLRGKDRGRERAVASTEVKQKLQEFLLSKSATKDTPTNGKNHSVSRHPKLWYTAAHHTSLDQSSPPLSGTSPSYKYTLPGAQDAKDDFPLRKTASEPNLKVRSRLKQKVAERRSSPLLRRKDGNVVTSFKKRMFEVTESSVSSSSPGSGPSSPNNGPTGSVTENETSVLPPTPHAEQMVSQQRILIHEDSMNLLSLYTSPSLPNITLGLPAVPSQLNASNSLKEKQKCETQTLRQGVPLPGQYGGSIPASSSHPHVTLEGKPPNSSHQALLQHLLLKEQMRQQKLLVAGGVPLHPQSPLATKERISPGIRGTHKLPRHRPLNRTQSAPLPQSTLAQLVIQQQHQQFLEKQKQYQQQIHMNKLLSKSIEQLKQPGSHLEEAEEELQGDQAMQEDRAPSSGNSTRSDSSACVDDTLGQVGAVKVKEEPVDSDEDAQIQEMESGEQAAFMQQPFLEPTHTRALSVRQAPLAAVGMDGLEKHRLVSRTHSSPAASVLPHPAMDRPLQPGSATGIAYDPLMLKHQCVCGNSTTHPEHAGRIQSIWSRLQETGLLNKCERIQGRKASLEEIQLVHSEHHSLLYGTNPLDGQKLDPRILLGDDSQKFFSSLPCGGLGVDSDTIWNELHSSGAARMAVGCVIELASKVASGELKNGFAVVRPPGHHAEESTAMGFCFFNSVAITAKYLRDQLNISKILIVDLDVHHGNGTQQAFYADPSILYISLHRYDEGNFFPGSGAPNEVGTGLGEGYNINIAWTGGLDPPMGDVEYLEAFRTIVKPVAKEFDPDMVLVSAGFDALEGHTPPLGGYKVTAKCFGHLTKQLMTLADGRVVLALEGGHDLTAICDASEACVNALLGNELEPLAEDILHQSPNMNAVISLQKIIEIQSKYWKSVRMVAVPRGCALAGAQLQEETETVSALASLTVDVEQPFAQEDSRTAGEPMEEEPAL", "assay": "Inhibition of HDAC enzymes, 12-point concentration-response", "method": "as §1"}, "HDAC11": {"molecular_target": "T4, HDAC11 (Homo sapiens, UniProt Q96DB2)", "T4 construct": "made in house", "T4 sequence (Q96DB2 whole entry, species assumed)": "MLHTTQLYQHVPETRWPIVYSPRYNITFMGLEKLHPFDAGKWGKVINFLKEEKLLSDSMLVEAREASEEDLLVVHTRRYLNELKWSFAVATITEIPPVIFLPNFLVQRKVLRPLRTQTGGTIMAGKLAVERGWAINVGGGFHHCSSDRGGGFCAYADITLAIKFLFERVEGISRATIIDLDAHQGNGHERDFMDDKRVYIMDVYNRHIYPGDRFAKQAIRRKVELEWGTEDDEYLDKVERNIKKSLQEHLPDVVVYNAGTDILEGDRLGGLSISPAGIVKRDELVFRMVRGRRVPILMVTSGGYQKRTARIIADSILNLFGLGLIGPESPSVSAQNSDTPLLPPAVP", "assay": "Inhibition of HDAC enzymes, 12-point concentration-response", "method": "as §1"}, "HDAC3": {"molecular_target": "T5, HDAC3 (Homo sapiens, UniProt O15379)", "T5 construct": "purchased BPS 50003", "T5 sequence (O15379 whole entry)": "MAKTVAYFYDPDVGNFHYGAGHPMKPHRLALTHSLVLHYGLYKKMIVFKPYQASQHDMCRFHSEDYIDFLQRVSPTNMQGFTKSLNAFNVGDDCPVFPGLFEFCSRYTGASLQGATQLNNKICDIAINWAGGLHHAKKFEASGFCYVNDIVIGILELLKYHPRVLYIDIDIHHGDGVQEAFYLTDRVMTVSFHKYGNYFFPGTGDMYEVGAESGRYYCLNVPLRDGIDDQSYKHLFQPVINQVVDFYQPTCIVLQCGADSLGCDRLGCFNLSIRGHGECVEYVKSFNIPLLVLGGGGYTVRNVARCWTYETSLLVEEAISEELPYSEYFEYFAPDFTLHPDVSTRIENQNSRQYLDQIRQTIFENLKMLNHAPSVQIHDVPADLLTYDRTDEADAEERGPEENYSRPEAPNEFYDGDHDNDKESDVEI", "T5 sequence (Q9Y618 395-489 partner limits assumed)": "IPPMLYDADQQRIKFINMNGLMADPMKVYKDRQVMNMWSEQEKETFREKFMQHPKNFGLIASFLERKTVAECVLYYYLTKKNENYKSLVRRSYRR", "assay": "Inhibition of HDAC enzymes, 12-point concentration-response", "conditions": "for IC50: HDAC3", "method": "as §1"}, "HDAC7": {"molecular_target": "T6, HDAC7 (Homo sapiens, UniProt Q8WUI4)", "T6 construct": "made in house", "T6 sequence (Q8WUI4 whole entry)": "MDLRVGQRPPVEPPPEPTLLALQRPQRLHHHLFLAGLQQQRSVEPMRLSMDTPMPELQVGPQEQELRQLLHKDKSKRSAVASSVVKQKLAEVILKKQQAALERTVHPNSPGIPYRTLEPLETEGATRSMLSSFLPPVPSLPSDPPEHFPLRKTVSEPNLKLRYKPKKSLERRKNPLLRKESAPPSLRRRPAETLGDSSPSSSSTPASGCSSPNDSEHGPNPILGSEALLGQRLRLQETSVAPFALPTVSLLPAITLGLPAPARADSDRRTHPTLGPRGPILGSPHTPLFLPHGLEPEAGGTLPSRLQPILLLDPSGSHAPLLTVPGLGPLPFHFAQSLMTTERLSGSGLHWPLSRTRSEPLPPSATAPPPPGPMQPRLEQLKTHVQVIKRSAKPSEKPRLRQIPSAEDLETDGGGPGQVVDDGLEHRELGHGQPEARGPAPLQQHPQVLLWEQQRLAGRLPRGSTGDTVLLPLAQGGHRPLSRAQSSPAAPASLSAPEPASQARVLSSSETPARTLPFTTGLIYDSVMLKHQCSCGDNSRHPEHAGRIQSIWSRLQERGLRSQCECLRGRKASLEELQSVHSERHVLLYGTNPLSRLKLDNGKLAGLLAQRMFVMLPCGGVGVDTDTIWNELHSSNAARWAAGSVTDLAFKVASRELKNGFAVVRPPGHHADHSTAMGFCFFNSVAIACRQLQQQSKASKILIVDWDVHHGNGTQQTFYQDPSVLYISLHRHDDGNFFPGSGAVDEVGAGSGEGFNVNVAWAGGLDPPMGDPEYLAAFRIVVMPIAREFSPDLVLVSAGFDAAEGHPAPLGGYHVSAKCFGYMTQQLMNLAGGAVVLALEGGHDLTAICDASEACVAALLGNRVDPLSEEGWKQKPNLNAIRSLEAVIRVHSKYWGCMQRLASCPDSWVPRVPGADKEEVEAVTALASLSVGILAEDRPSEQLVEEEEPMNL", "assay": "Inhibition of HDAC enzymes, 12-point concentration-response", "method": "as §1"}, "HDAC2": {"molecular_target": "T7, HDAC2 (Homo sapiens, UniProt Q92769)", "T7 construct": "purchased BPS 50002", "T7 sequence (Q92769 whole entry)": "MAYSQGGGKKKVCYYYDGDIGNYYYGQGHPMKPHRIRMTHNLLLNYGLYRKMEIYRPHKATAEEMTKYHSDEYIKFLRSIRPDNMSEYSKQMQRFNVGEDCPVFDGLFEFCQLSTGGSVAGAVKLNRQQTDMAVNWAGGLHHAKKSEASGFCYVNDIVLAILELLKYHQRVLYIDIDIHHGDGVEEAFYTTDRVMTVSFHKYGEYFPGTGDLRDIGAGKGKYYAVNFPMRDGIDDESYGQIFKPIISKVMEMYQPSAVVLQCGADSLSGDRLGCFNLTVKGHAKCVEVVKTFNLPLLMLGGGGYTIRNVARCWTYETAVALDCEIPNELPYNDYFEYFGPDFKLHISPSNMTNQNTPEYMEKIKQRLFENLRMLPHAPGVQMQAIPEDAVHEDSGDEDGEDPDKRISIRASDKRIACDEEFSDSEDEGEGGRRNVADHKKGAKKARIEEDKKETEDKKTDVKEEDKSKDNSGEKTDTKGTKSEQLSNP", "assay": "Inhibition of HDAC enzymes, 12-point concentration-response", "method": "as §1"}, "HDAC1": {"molecular_target": "T8, HDAC1 (Homo sapiens, UniProt Q13547)", "T8 construct": "purchased BPS 50051", "T8 sequence (Q13547 whole entry)": "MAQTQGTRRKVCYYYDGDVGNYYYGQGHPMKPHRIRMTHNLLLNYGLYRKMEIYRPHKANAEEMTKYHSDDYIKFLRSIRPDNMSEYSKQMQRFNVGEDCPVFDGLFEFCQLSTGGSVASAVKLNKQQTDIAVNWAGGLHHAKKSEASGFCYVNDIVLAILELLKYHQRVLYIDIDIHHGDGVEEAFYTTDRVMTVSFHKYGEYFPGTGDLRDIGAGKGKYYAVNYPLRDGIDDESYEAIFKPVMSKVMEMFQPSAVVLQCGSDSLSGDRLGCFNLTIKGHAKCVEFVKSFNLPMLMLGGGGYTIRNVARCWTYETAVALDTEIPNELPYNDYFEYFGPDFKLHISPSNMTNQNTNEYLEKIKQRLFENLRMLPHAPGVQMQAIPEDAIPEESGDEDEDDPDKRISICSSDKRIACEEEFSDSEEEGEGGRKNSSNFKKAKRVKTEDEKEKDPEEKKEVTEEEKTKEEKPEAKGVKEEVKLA", "assay": "Inhibition of HDAC enzymes, 12-point concentration-response", "method": "as §1"}, "HDAC6 [1]": {"molecular_target": "T9, HDAC6 (Homo sapiens, UniProt Q9UBN7)", "T9 sequence (Q9UBN7 1-1215)": "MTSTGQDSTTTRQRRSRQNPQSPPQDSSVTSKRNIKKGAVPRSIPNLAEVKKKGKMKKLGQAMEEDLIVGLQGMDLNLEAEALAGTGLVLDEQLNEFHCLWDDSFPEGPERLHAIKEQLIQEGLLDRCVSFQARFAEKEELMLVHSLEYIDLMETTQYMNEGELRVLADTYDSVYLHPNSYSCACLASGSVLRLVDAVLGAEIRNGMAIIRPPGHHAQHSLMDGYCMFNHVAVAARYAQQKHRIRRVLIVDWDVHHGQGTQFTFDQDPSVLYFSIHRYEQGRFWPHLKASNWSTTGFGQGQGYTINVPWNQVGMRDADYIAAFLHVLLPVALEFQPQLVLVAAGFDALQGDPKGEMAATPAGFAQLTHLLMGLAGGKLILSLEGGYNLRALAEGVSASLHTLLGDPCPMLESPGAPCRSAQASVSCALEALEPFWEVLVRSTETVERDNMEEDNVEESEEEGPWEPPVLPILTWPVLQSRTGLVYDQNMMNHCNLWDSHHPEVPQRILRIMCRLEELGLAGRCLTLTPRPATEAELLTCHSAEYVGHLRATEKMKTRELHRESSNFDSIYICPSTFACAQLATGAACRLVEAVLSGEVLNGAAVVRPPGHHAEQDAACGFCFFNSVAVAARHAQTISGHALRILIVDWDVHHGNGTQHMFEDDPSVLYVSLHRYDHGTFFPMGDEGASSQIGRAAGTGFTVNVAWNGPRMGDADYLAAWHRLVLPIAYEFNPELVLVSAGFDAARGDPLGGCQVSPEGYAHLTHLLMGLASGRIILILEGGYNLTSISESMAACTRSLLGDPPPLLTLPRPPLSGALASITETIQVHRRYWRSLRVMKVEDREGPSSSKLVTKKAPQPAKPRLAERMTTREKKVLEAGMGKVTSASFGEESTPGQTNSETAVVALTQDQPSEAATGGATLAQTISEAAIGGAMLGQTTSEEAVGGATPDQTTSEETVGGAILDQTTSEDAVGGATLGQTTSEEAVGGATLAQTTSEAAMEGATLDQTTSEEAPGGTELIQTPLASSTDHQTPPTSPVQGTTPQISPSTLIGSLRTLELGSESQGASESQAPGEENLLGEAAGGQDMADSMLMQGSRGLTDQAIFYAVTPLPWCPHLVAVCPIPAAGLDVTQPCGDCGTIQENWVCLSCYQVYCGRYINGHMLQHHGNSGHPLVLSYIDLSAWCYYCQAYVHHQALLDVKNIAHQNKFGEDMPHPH", "assay": "Determination of Koff kinetics against HDAC6 protein", "conditions": "for residence time: 100 nM HDAC6 pre-incubated with 0.120 μM compound for 3 hr, diluted 200×, Ln(2)/Kobs, read-out: residence time for binding to HDAC6", "method": "The disassociation rate for #1a (FIG. 3) or #1b (FIG. 4) was determined by pre-incubating 100 nM HDAC6 protein with 0.120 μM compound #1a, #1b, or DMSO for 3 hr. After pre-incubation, the compound-enzyme complex was diluted (200×) into an assay buffer with substrate peptide. Progress curves for ˜8 hrs were observed using Labchip3000 instrument. Progress curve after pre-incubation with compound (blue) was fit with following equation: ((A+(Vs*x))+(((Vo−Vs)*(1−exp(((−1)*Kobs)*t)))/Kobs)), to determine observed rate of dissociation. Residence time was determined as Ln(2)/Kobs."}, "HDAC6 [2]": {"molecular_target": "T9, HDAC6", "assay": "Inhibition of HDAC enzymes, 12-point concentration-response", "parameters": "made in house", "conditions": "for IC50: HDAC6", "method": "as §1"}},
  "data": [
    {"smiles": "CC[C@H](C(=O)Nc1ncc(C(=O)NO)s1)c1ccc(OC)cc1", "note": "[#1a, (S)—N-hydroxy-2-(2-(4-methoxyphenyl)butanamido)thiazole-5-carboxamide]", "values": [
      {"measurement": "IC50", "setting": "HDAC10", "value": 2, "unit": "nM"},
      {"measurement": "Fold (1b/1a)", "setting": "HDAC10; ratio of IC50, HDAC10", "value": 7.3},
      {"measurement": "Fold (1b/1a)", "setting": "HDAC4; ratio of IC50, HDAC4", "value": 1.2},
      {"measurement": "Fold (1b/1a)", "setting": "HDAC9; ratio of IC50, HDAC9", "value": 1.1},
      {"measurement": "Fold (1b/1a)", "setting": "HDAC11; ratio of IC50, HDAC11", "value": 0.73},
      {"measurement": "IC50", "setting": "HDAC3", "value": "< 0.56", "unit": "nM"},
      {"measurement": "Fold (1b/1a)", "setting": "HDAC3; ratio of IC50, HDAC3", "value": 4.6},
      {"measurement": "Fold (1b/1a)", "setting": "HDAC7; ratio of IC50, HDAC7", "value": 3.4},
      {"measurement": "Fold (1b/1a)", "setting": "HDAC2; ratio of IC50, HDAC2", "value": 6.9},
      {"measurement": "Fold (1b/1a)", "setting": "HDAC1; ratio of IC50, HDAC1", "value": 7.8},
      {"measurement": "residence time", "setting": "HDAC6 [1]", "value": 1920, "unit": "min"},
      {"measurement": "binding to HDAC6 (in words)", "setting": "HDAC6 [1]; HDAC6", "value": "very tightly bound inhibitor of HDAC6"},
      {"measurement": "increase in residence time compared to #1b", "setting": "HDAC6 [1]; HDAC6", "value": 55, "unit": "fold"},
      {"measurement": "IC50", "setting": "HDAC6 [2]", "value": 0.71, "unit": "nM"},
      {"measurement": "Fold (1b/1a)", "setting": "HDAC6 [2]; ratio of IC50, HDAC6", "value": 1.5}
    ]},
    {"smiles": "CC[C@@H](C(=O)Nc1ncc(C(=O)NO)s1)c1ccc(OC)cc1", "note": "[#1b, (R)—N-hydroxy-2-(2-(4-methoxyphenyl)butanamido)thiazole-5-carboxamide]", "values": [
      {"measurement": "IC50", "setting": "HDAC10", "value": 14.6, "unit": "nM"},
      {"measurement": "IC50", "setting": "HDAC4; HDAC4", "value": 160, "unit": "nM"},
      {"measurement": "IC50", "setting": "HDAC9; HDAC9", "value": 210, "unit": "nM"},
      {"measurement": "IC50", "setting": "HDAC11; HDAC11", "value": 4220, "unit": "nM"},
      {"measurement": "IC50", "setting": "HDAC3", "value": 2.6, "unit": "nM"},
      {"measurement": "IC50", "setting": "HDAC7; HDAC7", "value": 118, "unit": "nM"},
      {"measurement": "IC50", "setting": "HDAC2; HDAC2", "value": 36.5, "unit": "nM"},
      {"measurement": "IC50", "setting": "HDAC1; HDAC1", "value": 7.8, "unit": "nM"},
      {"measurement": "residence time", "setting": "HDAC6 [1]", "value": 35, "unit": "min"},
      {"measurement": "IC50", "setting": "HDAC6 [2]", "value": 1.1, "unit": "nM"}
    ]}
  ]
}
